Data from patent US20080220103A1, “METHOD FOR TREATING/CONTROLLING/KILLING FUNGI AND BACTERIA ON LIVING ANIMALS” (priority 2005, published 2008).
≈ marks a conversion by molar mass, not a printed value. Where “and” joins values, the source holds several entries; their conditions need not be identical. Identical values can stand only once. Like-named read-outs stand apart in the source and are kept apart here.

What was measured:
S. aureus = assay: MIC, CLSI M7-A7, Mueller-Hinton; assay type: cell-based, Staphylococcus aureus; details: for MIC Range: n = 6 printed
Description: (§1) Minimum Inhibitory Concentration (MIC): Minimum inhibitory concentrations of synthetic and semisynthetic and natural products against dermatophytes were determined using a modification of the Clinical Laboratory Standards Institute (CLSI, formerly National Committee of Clinical Laboratory Standards, NCCLS) M38A standard method for dermatophytes, while MIC of these agents against Candida species were determined using the CLSI M27-A2 methodology. The method used to determine the MIC against bacteria was based on the CLSI document M7-A7.
(§2) For bacterial species, the medium used to evaluate the antibacterial activity of agents and essential oils was Mueller-Hinton (Oxoid Ltd., Basingstoke, Hampshire, England). Serial dilutions of miconazole, terbinafine, and tolnaftate were prepared in a range of 0.125-64 μg/ml and serial dilutions of tea tree oil were prepared in a range of 0.0078-4 μg/ml, while those for the rest of the essential oils were prepared in a range 0.031-16 μg/ml.

T. mentagrophytes [1] = assay: MIC, modified CLSI M38A broth dilution; assay type: cell-based, Trichophyton mentagrophytes
Description: as §1
(§3) For dermatophytes, serial dilutions of terbinafine, tolnaftate were prepared in a range of 0.004-2 μg/ml, while for miconazole concentrations ranged between 0.015-8 μg/ml. Finally, for essential oils, the concentrations tested were between 0.03-16 μg/ml. The only exception was tea tree oil where dilutions were prepared in a range of 0.0078-4 μg/ml. The MIC was read at 4 days post inoculation and defined as the lowest concentration of an agent to inhibit 80% of fungal growth as compared to the growth control (Table 2).

S. epidermidis = assay: MIC, CLSI M7-A7, Mueller-Hinton; assay type: cell-based; details: Staphylococcus epidermidis
Description: as §1, §2

E. floccosum [2] = assay: Minimum fungicidal concentration (Canton et al.); assay type: cell-based, Epidermophyton floccosum; details: for MFC: Epidermophyton floccosum
Description: (§4) Minimum fungicidal concentration (MFC): The minimum fungicidal concentrations of various agents were determined using the technique described by Canton et al. (Antimicrob Agents Chemother. 2004 8:2477-82). In that method, fungal conidia were collected following growth on potato dextrose agar (PDA) plates and were used to inoculate 96-well plates containing different concentrations of agents. Following incubation at 35° C. for 4 days (for dermatophytes) or 24 hours (for yeast), wells showing no visible growth were cultured to determine the MFC (defined as the lowest concentration of a given agent that kills>99.999% of fungal conidia or spores). The MFC value represents the level of the agent at which spores or conidia were killed.

T. mentagrophytes [3] = assay: Minimum fungicidal concentration (Canton et al.); assay type: cell-based, Trichophyton mentagrophytes; details: for MFC: Trichophyton mentagrophytes
Description: as §4

E. floccosum [4] = assay: MIC, modified CLSI M38A broth dilution; assay type: cell-based, Epidermophyton floccosum
Description: as §1, §3

C. parapsilosis = assay: MIC, CLSI M27-A2; assay type: cell-based, Candida parapsilosis
Description: as §1
(§5) The remaining essential oils were prepared in a dilution range of 0.03-16 μg/ml. For Candida the MIC was read at 24 hours and defined as the lowest concentration to inhibit 50% of fungal growth as compared to the growth control (Table 4).

All dermatophytes [5] = assay: Minimum fungicidal concentration, pooled dermatophytes; assay type: cell-based, E. floccosum, T. rubrum, T. mentagrophytes; details: All dermatophytes, n = 18
Description: as §4
(§6) In the following Tables, MIC50 and MIC90 are defined as the minimal concentrations of a compound that can inhibit 50% and 90% of the tested organisms, respectively.

All yeasts = assay: MIC, CLSI M27-A2, pooled yeasts; assay type: cell-based, C. albicans, C. parapsilosis; details: n = 12
Description: as §1, §5, §6

All dermatophytes [6] = assay: MIC, modified CLSI M38A, pooled dermatophytes; assay type: cell-based, E. floccosum, T. rubrum, T. mentagrophytes
Description: as §1, §3, §6

T. rubrum = assay: Minimum fungicidal concentration (Canton et al.); assay type: cell-based, Trichophyton rubrum; details: for MFC: Trichophyton rubrum
Description: as §4

[7] = system: All bacteria (Staphylococcus species); assay: MIC, CLSI M7-A7, pooled bacteria; assay type: cell-based, S. aureus, S. epidermidis; details: Staphylococcus, n = 12
Description: as §1, §2, §6

[8] = Staphylococcus aureus, S. aureus
[9] = Trichophyton mentagrophytes, T. mentagrophytes, n = 6
[10] = Epidermophyton floccosum, E. floccosum, n = 6
[11] = Lodderomyces parapsilosis, C. parapsilosis, n = 6

- MIC (S. aureus; S. aureus strain 733): >64 mg/L
- MIC (S. aureus; S. aureus strain 734): >64 mg/L
- MIC (S. aureus; S. aureus strain 8470): >64 mg/L
- MIC Range (S. aureus; S. aureus, listed as TOLNAFTATE): >64 mg/L
- MIC Range (S. aureus; S. aureus, listed as tolnaftate): > 64 mg/L
- MIC50 (S. aureus; [8]): > 64 mg/L
- MIC90 (S. aureus; [8]): > 64 mg/L
- MIC (S. aureus; Staphylococcus aureus, S. aureus strain 730, 80% inhibition, 16 h, read-out: MIC): > 64 mg/L
- MIC (S. aureus; Staphylococcus aureus, S. aureus strain 732, read-out: MIC): > 64 mg/L
- MIC Range (T. mentagrophytes [1]; T. mentagrophytes, n = 6): 0.008 to 0.125 mg/L
- MIC (T. mentagrophytes [1]; Trichophyton mentagrophytes, T. mentagrophytes strain 1720): 0.008 mg/L (≈ 0.026 µM)
- MIC (T. mentagrophytes [1]; Trichophyton mentagrophytes, T. mentagrophytes strain 2124): 0.06 mg/L (≈ 0.195 µM)
- MIC (T. mentagrophytes [1]; Trichophyton mentagrophytes, T. mentagrophytes strain 2125): 0.06 mg/L (≈ 0.195 µM)
- MIC (T. mentagrophytes [1]; Trichophyton mentagrophytes, T. mentagrophytes strain 2126): 0.004 mg/L (≈ 0.013 µM)
- MIC (T. mentagrophytes [1]; Trichophyton mentagrophytes, T. mentagrophytes strain 2127): 0.06 mg/L (≈ 0.195 µM)
- MIC (T. mentagrophytes [1]; Trichophyton mentagrophytes, T. mentagrophytes strain 2128): 0.125 mg/L (≈ 0.407 µM)
- MIC50 (T. mentagrophytes [1]; [9]): 0.06 mg/L (≈ 0.195 µM)
- MIC90 (T. mentagrophytes [1]; [9]): 0.125 mg/L (≈ 0.407 µM)
- MIC (S. epidermidis; S. epidermidis strain 8472, read-out: MIC): 2 mg/L (≈ 6.51 µM)
- MIC (S. epidermidis; S. epidermidis strain 8473, read-out: MIC): 16 mg/L (≈ 52 µM)
- MIC (S. epidermidis; S. epidermidis strain 8474, read-out: MIC): 2 mg/L (≈ 6.51 µM)
- MIC (S. epidermidis; S. epidermidis strain 8475, read-out: MIC): > 64 mg/L
- MIC (S. epidermidis; S. epidermidis strain 8476, read-out: MIC): > 64 mg/L
- MIC (S. epidermidis; S. epidermidis strain 8477, read-out: MIC): > 64 mg/L
- MIC (S. epidermidis; S. epidermidis, two strains, read-out: MIC values): 2 mg/L (≈ 6.51 µM)
- MIC50 (S. epidermidis; S. epidermidis, n = 6): 16 mg/L (≈ 52 µM)
- MIC90 (S. epidermidis; S. epidermidis, n = 6): > 64 mg/L
- MIC Range (E. floccosum [4]; E. floccosum, n = 6): 0.06 to 0.125 mg/L
- MIC (E. floccosum [4]; Epidermophyton floccosum, E. floccosum strain 1666): 0.06 mg/L (≈ 0.195 µM)
- MIC (E. floccosum [4]; Epidermophyton floccosum, E. floccosum strain 1798): 0.06 mg/L (≈ 0.195 µM)
- MIC (E. floccosum [4]; Epidermophyton floccosum, E. floccosum strain 1925): 0.06 mg/L (≈ 0.195 µM)
- MIC (E. floccosum [4]; Epidermophyton floccosum, E. floccosum strain 1926): 0.125 mg/L (≈ 0.407 µM)
- MIC (E. floccosum [4]; Epidermophyton floccosum, E. floccosum strain 1961): 0.125 mg/L (≈ 0.407 µM)
- MIC (E. floccosum [4]; Epidermophyton floccosum, E. floccosum strain 2165): 0.06 mg/L (≈ 0.195 µM)
- MIC50 (E. floccosum [4]; [10]): 0.06 mg/L (≈ 0.195 µM)
- MIC90 (E. floccosum [4]; [10]): 0.125 mg/L (≈ 0.407 µM)
- MIC Range (C. parapsilosis; C. parapsilosis, n = 6): 0.5 to 16 mg/L
- MIC (C. parapsilosis; Lodderomyces parapsilosis, C. parapsilosis strain 7629): 0.5 mg/L (≈ 1.63 µM)
- MIC (C. parapsilosis; Lodderomyces parapsilosis, C. parapsilosis strain 7668): 8 mg/L (≈ 26 µM)
- MIC (C. parapsilosis; Lodderomyces parapsilosis, C. parapsilosis strain 7672): 8 mg/L (≈ 26 µM)
- MIC (C. parapsilosis; Lodderomyces parapsilosis, C. parapsilosis strain 7995): 8 mg/L (≈ 26 µM)
- MIC (C. parapsilosis; Lodderomyces parapsilosis, C. parapsilosis strain 8148): 8 mg/L (≈ 26 µM)
- MIC (C. parapsilosis; Lodderomyces parapsilosis, C. parapsilosis strain 8442): 16 mg/L (≈ 52 µM)
- MIC (C. parapsilosis; Lodderomyces parapsilosis, C. parapsilosis, the other isolates (not #7629)): 8 to 16 mg/L (≈ 26 to 52 µM)
- MIC50 (C. parapsilosis; [11]): 8 mg/L (≈ 26 µM)
- MIC90 (C. parapsilosis; [11]): 8 mg/L (≈ 26 µM)
- MIC50 (All yeasts): 16 mg/L (≈ 52 µM)
- MIC90 (All yeasts): > 64 mg/L
- MIC50 (All dermatophytes [6]; n = 18): 0.06 mg/L (≈ 0.195 µM)
- MIC90 (All dermatophytes [6]; n = 18): 0.125 mg/L (≈ 0.407 µM)
- MIC Range (All dermatophytes [6]; n = 18, listed as tolnaftate): 0.008 to 0.125 mg/L
- MIC50 [7]: > 64 mg/L
- MIC90 [7]: > 64 mg/L
SMILES: Cc1cccc(N(C)C(=S)Oc2ccc3ccccc3c2)c1 [Tolnaftate, tolnaftate]
- MFC range (row MIC Range) (E. floccosum [2]; E. floccosum, n = 6): 0.25 to 0.5 mg/L
- MFC (E. floccosum [2]; E. floccosum strain 1666, read-out: MFC): 0.25 mg/L (≈ 0.813 µM)
- MFC (E. floccosum [2]; E. floccosum strain 1798, read-out: MFC): 0.25 mg/L (≈ 0.813 µM)
- MFC (E. floccosum [2]; E. floccosum strain 1925, read-out: MFC): 0.25 mg/L (≈ 0.813 µM)
- MFC (E. floccosum [2]; E. floccosum strain 1926, read-out: MFC): 0.5 mg/L (≈ 1.63 µM)
- MFC (E. floccosum [2]; E. floccosum strain 1961, read-out: MFC): 0.5 mg/L (≈ 1.63 µM)
- MFC (E. floccosum [2]; E. floccosum strain 2165, read-out: MFC): 0.25 mg/L (≈ 0.813 µM)
- MFC (E. floccosum [2]; E. floccosum, n = 6, read-out: MFC, row MIC50): 0.25 mg/L (≈ 0.813 µM)
- MFC (E. floccosum [2]; E. floccosum, n = 6, read-out: MFC, row MIC90): 0.5 mg/L (≈ 1.63 µM)
- MFC range (row MIC Range) (T. mentagrophytes [3]; T. mentagrophytes, n = 6): 0.5 to 1 mg/L
- MFC (T. mentagrophytes [3]; T. mentagrophytes strain 2124, read-out: MFC): 0.5 mg/L (≈ 1.63 µM)
- MFC (T. mentagrophytes [3]; T. mentagrophytes strain 2125, read-out: MFC): 0.5 mg/L (≈ 1.63 µM)
- MFC (T. mentagrophytes [3]; T. mentagrophytes strain 2127, read-out: MFC): 1 mg/L (≈ 3.25 µM)
- MFC (T. mentagrophytes [3]; T. mentagrophytes strain 2128, read-out: MFC): 1 mg/L (≈ 3.25 µM)
- MFC (T. mentagrophytes [3]; T. mentagrophytes, n = 6, read-out: MFC, row MIC50): 0.5 mg/L (≈ 1.63 µM)
- MFC (T. mentagrophytes [3]; T. mentagrophytes, n = 6, read-out: MFC, row MIC90): 1 mg/L (≈ 3.25 µM)
- MFC Range (All dermatophytes [5]): 0.06 to 1.0 mg/L and 0.06 to 1 mg/L
- MFC Range (All dermatophytes [5]; listed as tolnaftate): 0.06 to 0.125 mg/L
- MFC (All dermatophytes [5]; read-out: MFC, row MIC50): 0.125 mg/L (≈ 0.407 µM)
- MFC (All dermatophytes [5]; read-out: MFC, row MIC90): 1 mg/L (≈ 3.25 µM)
- MFC range (row MIC Range) (T. rubrum; T. rubrum, n = 6): 0.06 to 0.125 mg/L
- MFC (T. rubrum; T. rubrum strain 1967, read-out: MFC): 0.06 mg/L (≈ 0.195 µM)
- MFC (T. rubrum; T. rubrum strain 2098, read-out: MFC): 0.06 mg/L (≈ 0.195 µM)
- MFC (T. rubrum; T. rubrum strain 2246, read-out: MFC): 0.06 mg/L (≈ 0.195 µM)
- MFC (T. rubrum; T. rubrum strain 8063, read-out: MFC): 0.06 mg/L (≈ 0.195 µM)
- MFC (T. rubrum; T. rubrum strain 8071, read-out: MFC): 0.06 mg/L (≈ 0.195 µM)
- MFC (T. rubrum; T. rubrum strain 8092, read-out: MFC): 0.125 mg/L (≈ 0.407 µM)
- MFC (T. rubrum; T. rubrum, n = 6, read-out: MFC, row MIC50): 0.06 mg/L (≈ 0.195 µM)
- MFC (T. rubrum; T. rubrum, n = 6, read-out: MFC, row MIC90): 0.125 mg/L (≈ 0.407 µM)
